The values that follow are results of earlier work, collected in US8637672B2 (Deciphera Pharmaceuticals, LLC, priority 2010, dated 2014).

Structures are written as SMILES.

Usually IC50 stands for the concentration needed to halve the response being measured.

For this data set, the target named is VEGFR-2 (KDR kinase) (Homo sapiens, UniProt P35968, DEL940-989/E990V). The note with it: values published in the '188/'556 applications; cited from earlier work.
Sequence of VEGFR-2 (KDR kinase) (P35968 with tags, fused parts or gaps DEL940-989/E990V): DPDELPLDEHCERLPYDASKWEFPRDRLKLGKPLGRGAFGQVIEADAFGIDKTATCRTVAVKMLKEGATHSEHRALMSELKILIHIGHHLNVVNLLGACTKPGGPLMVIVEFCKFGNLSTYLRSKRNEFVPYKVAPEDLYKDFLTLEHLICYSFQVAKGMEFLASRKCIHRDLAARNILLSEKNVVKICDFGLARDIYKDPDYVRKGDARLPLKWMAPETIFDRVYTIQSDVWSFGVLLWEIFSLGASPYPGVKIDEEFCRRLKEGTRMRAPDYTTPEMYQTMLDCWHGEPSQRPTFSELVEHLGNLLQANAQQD

As to `CN1CCN(C2CCN(C(=O)Nc3cc(Oc4ccc(NC(=O)C5(C(=O)Nc6ccc(F)cc6)CC5)c(F)c4)ccn3)CC2)CC1` [Compound F], the IC50 is 0.24 µM.
